Experimental data from US8501762B2, “Tetrahydroprotoberberine compounds, the synthetic method and the use thereof” (Shanghai Institute of Materia Medica, Chinese Academy of …, priority 2005, dated 2013).
Where a name gives a salt, the structure may show the parent alone.

How the values were obtained:
dopamine D1 receptor = dopamine D1 receptor (Homo sapiens, UniProt P21728); assay: Dopamine receptor competitive binding, D1; conditions: for inhibition at 10 µM / Inhibition(%) for D1: tested at 1 × 10^−5 mol/L; for Ki: calculated from the inhibition data
Sequence of dopamine D1 receptor (P21728 whole entry): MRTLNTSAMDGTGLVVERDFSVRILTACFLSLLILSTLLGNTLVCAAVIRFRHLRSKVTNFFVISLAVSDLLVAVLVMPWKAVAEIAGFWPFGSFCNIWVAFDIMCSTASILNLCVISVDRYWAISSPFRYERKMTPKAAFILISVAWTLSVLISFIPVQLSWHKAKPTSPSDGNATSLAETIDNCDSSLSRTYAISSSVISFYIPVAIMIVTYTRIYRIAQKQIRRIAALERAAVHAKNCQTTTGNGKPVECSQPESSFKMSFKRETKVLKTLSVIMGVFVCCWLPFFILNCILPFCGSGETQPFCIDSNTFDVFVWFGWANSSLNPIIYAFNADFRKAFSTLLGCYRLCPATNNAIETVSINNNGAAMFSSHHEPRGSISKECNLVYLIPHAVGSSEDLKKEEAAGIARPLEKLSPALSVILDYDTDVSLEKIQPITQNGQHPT
Method: (§1) 1. Dopamine Receptor Binding Studies
The Ki is calculated according the inhibition data tested.

dopamine D2 receptor = dopamine D2 receptor (Homo sapiens, UniProt P14416); assay: Dopamine receptor competitive binding, D2; conditions: for inhibition at 10 µM / Inhibition(%) for D2: tested at 1 × 10^−5 mol/L; for Ki: calculated from the inhibition data
Sequence of dopamine D2 receptor (P14416 whole entry, species assumed): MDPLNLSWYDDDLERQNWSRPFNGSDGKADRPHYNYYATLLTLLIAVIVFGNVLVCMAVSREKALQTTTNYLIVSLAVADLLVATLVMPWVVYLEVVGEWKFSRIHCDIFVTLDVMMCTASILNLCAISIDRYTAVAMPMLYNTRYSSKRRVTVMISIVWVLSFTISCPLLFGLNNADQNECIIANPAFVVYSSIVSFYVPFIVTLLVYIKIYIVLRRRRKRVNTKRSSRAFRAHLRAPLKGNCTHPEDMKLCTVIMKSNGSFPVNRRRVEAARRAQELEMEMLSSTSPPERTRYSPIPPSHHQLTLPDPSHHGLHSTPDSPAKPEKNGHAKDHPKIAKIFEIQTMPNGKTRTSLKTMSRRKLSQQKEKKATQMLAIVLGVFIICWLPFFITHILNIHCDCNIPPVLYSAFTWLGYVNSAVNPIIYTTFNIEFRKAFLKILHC
Method: as §1
The affinities of these compounds on dopamine receptors were evaluated with competitive receptor binding assays (Acta Pharmacol Sin, 1989, 10:104 and Acta Pharmacol Sin, 2003, 24(3): 225-229). The Ki is calculated according the inhibition data tested.

mice = assay: PCP-induced immobility test in mice; format: in vivo; conditions: 20 mg/kg (i.g.), PCP-treated mice; PCP group 78.1±28 s, P<0.05
Method: 3. PCP-Induced Immobility Test in Mice
Phencyclidine(PCP)-induced immobility test in mice was selected as the model to evaluate the antipsychotic effect of some compounds of the present invention (Br J Pharmacol, 1995, 116: 2531-2537). The dose is selected according the ED50 of l-CSLMS. Given PCP, immobility times of mice was increased, whereas the active compound can decrease the immobility time. At 20 mg/kg (i.g.), the immobility time of compound of example 47 is 54.9±19 s, and the immobility time of l-CSLMS is 48.0±27 s, which has statistically significant differences (P<0.05) compared to PCP group (78.1±28 s).

6-OHDA-lesioned rats = 6-OHDA-lesioned rats rotation test; format: in vivo; conditions: 10 mg/kg
Method: 2. 6-OHDA-Lesioned Rats Rotation Test
Some of the compounds were evaluated on 6-OHDA-lesioned rats model.

[1] = preliminary clinic studies, cited from earlier work

inhibition at 10 µM (dopamine D2 receptor) | SMILES | inhibition at 10 µM (dopamine D1 receptor) | Ki (dopamine D1 receptor) | further results
 | COc1cc2c(cc1OC(C)=O)C1Cc3ccc(OC(C)=O)c(OC)c3CN1CC2 (single isomer, unassigned; (-)) [Example 48, (−)-2,10-diacetoxy-3,9-dimethoxy-5,8,13,13a-tetrahydro-6H-dibenzo[a,g]quinolizine] |  |  | effect in 6-OHDA-lesioned rats model (6-OHDA-lesioned rats): positive effects
 | COc1cc2c(cc1O)C1Cc3c(Cl)cc(OC)c(OC(C)=O)c3CN1CC2 (single isomer, unassigned; (-)) [Example 50, (−)-2-hydroxy-3,10-dimethoxy-9-acetoxy-12-chloro-5,8,13,13a-tetrahydro-6H-dibenzo[a,g]quinolizine] | 100% |  | Inhibition(%) for D2 (dopamine D2 receptor): 58.5%
 | COc1cc2c(cc1O)C1Cc3c(Cl)cc(OC)c(O)c3CN1CC2 (stereo not drawn) [CSL, 2,9-dihydroxy-3,10-dimethoxy-12-chloro-5,8,13,13a-tetrahydro-6H-dibenzo[a,g]quinolizine, reference compound] |  | 6.1 ± 3 nM | 
 | COc1cc2c(cc1O)C1Cc3c(Cl)cc(OC)c(OC(C)=O)c3CN1CC2 (stereo not drawn) [Example 7, 2-hydroxy-3,10-dimethoxy-9-acetoxy-12-chloro-5,8,13,13a-tetrahydro-6H-dibenzo[a,g]quinolizine] |  | 10.7 ± 1 nM | Inhibition(%) for D1 (dopamine D1 receptor): 100%; Ki (dopamine D2 receptor): 6900 ± 1500 nM; Inhibition(%) for D2 (dopamine D2 receptor): 100.0%; effect in 6-OHDA-lesioned rats model (6-OHDA-lesioned rats): positive effects
 | CC(=O)O.COc1cc2c(cc1OC(C)=O)C1Cc3c(Cl)cc(OC)c(OC(C)=O)c3CN1CC2 (stereo not drawn) [Example 8, 2,9-diacetoxy-3,10-dimethoxy-12-chloro-5,8,13,13a-tetrahydro-6H-dibenzo[a,g]quinolizine acetate] |  |  | Inhibition(%) for D1 (dopamine D1 receptor): 100.0%; Inhibition(%) for D2 (dopamine D2 receptor): 93.8%
57.4% | COc1cc2c(cc1O)C1Cc3c(Cl)cc(OC)c(OCCO)c3CN1CC2 (stereo not drawn) [Example 17, 2-hydroxy-3,10-dimethoxy-9-(2-hydroxy-ethoxy)-12-chloro-5,8,13,13a-tetrahydro-6H-dibenzo[a,g]quinolizine] | 97.9% |  | 
 | COc1cc2c(cc1OCc1ccccc1)C1Cc3c(Cl)cc(OC)c(OCCOCCO)c3CN1CC2 (stereo not drawn) [Example 18, 2-benzyloxy-3,10-dimethoxy-9-[2-(2-hydroxy-ethoxy)-ethoxy]-12-chloro-5,8,13,13a-tetrahydro-6H-dibenzo[a,g]quinolizine] |  |  | melting point: 122 °C
100% | CCOC(=O)Oc1c(OC)cc(Cl)c2c1CN1CCc3cc(OC)c(O)cc3C1C2 (stereo not drawn) [Example 21, 2-hydroxy-3,10-dimethoxy-9-ethoxycarbonyloxy-12-chloro-5,8,13,13a-tetrahydro-6H-dibenzo[a,g]quinolizine] | 100% | 2.6 ± 0.7 nM | 
44% | COc1cc2c(cc1OCc1ccccc1)C1Cc3c(Cl)cc(OC)c(OC(=O)[C@@H](N)Cc4ccccc4)c3CN1CC2 (stereo partly drawn) [Example 23, 2-benzyloxy-3,10-dimethoxy-9-phenylalanyloxy-12-chloro-5,8,13,13a-tetrahydro-6H-dibenzo[a,g]quinolizine] | 77.5% |  | 
 | COCCOCCOCC(=O)Oc1c(OC)cc(Cl)c2c1CN1CCc3cc(OC)c(O)cc3C1C2 (stereo not drawn) [Example 43, 2-hydroxy-3,10-dimethoxy-9-{2-[2-(2-methoxy-ethoxy)-ethoxy]-acetoxy-}-12-chloro-5,8,13,13a-tetrahydro-6H-dibenzo[a,g]quinolizine] |  | 404 ± 188 nM | 
93.3% | Oc1cc2c(cc1O)C1Cc3c(Cl)cc(O)c(O)c3CN1CC2 (stereo not drawn) [Example 44, 2,3,9,10-tetrahydroxy-12-chloro-5,8,13,13a-tetrahydro-6H-dibenzo[a,g]quinolizine] | 100% |  | effect in 6-OHDA-lesioned rats model (6-OHDA-lesioned rats): positive effects
 | COc1cc(F)c2c(c1OC)CN1CCc3cc4c(cc3C1C2)OCO4 (stereo not drawn) [Example 63, 2,3-methylenedioxyl-9,10-dimethoxy-12-fluoro-5,8,13,13a-tetrahydro-6H-dibenzo[a,g]quinolizine] |  |  | Inhibition(%) for D1 (dopamine D1 receptor): 95.2%
 | COc1cc2c(cc1O)[C@@H]1Cc3c(Cl)cc(OC)c(O)c3CN1CC2 [l-CSLMS, S-chloroscoulerine mesylate, reference compound] |  |  | Ki (dopamine D2 receptor): 1700 ± 500 nM; immobility time (mice): 48.0 ± 27 s
 | COc1cc2c(cc1O)[C@@H]1Cc3ccc(O)c(OC)c3CN1CC2 [l-SPD, l-Stepholidine] |  |  | side effects ([1]; schizophrenia): few side effects; activity in the treatment of schizophrenia [1]: favorable activity

SMILES | inhibition at 10 µM (dopamine D2 receptor) | inhibition at 10 µM (dopamine D1 receptor) | Ki (dopamine D1 receptor) | further results
COc1cc2c(cc1OC(C)=O)C1Cc3c(Cl)cc(OC)c(OC(C)=O)c3CN1CC2 (single isomer, unassigned; (-)) [Example 47, (−)-2,9-diacetoxy-3,10-dimethoxy-12-chloro-5,8,13,13a-tetrahydro-6H-dibenzo[a,g]quinolizine] | 77.4% | 100% |  | immobility time (mice): 54.9 ± 19 s
COc1cc2c(cc1OC(C)=O)C1Cc3ccc(OC)c(OC(C)=O)c3CN1CC2 (stereo not drawn) [Example 34, 2,9-diacetoxy-3,10-dimethoxy-5,8,13,13a-tetrahydro-6H-dibenzo[a,g]quinolizine] | 90.7% | 99.4% | 51.8 ± 32.2 nM | Ki (dopamine D2 receptor): 10600 ± 2600 nM
COCCOCCOCC(=O)Oc1cc2c(cc1OC)CCN1Cc3c(c(Cl)cc(OC)c3OC(=O)COCCOCCOC)CC21 (stereo not drawn) [Example 42, 2,9-bis-{2-[2-(2-methoxy-ethoxy)-ethoxy]-acetoxy-}3,10-dimethoxy-12-chloro-5,8,13,13a-tetrahydro-6H-dibenzo[a,g]quinolizine] | 39.7% | 96.2% | 35.4 ± 4.4 nM | Ki (dopamine D2 receptor): 14900 ± 200 nM
